Experimental data: PubChem BioAssay AID266 (DTP/NCI, 2004)
Values joined by “and” are separate entries in the source; they are usually repeats but may differ in a detail not shown here. Equal entries are not always repeated. Results filed as inconclusive are left out.

System: Nude mice, LX-1 lung xenograft intrarenal, tumor weight T/C
Assay: NCI In Vivo Anticancer Drug Screen. Data for tumor model Human Lung LX-1 Xenograft (intrarenal inoculation) in NU/NU BALB/C (nude) mice
Details: endpoint: mean tumor weight change, higher = larger tumour
Procedure: The antitumor activity of compounds was measured in mice bearing transplantable tumors. Survival or tumor size were measured and the results are expressed as the measurement made in the treated group (T) divided by the measurement made in the vehicle treated control group (C). The tumor model used in this assay is Human Lung LX-1 Xenograft (intrarenal inoculation) in NU/NU BALB/C (nude) mice

[1] = dose: 5.0 mg/kg/injection, schedule: Q04DX003 (sc), vehicle: saline
[2] = dose: 10.0 mg/kg/injection, schedule: Q04DX003 (sc), vehicle: saline
[3] = dose: 25.0 mg/kg/injection, schedule: Q01DX010 (sc), vehicle: saline
[4] = dose: 50.0 mg/kg/injection, schedule: Q01DX010 (sc), vehicle: saline
[5] = dose: 200.0 mg/kg/injection, schedule: Q01DX010 (sc), vehicle: saline
[6] = dose: 300.0 mg/kg/injection, schedule: Q04DX003 (sc), vehicle: saline with Tween-80
[7] = dose: 1200.0 mg/kg/injection, schedule: Q04DX003 (sc), vehicle: saline with Tween-80
[8] = dose: 600.0 mg/kg/injection, schedule: Q04DX003 (sc), vehicle: saline with Tween-80
[9] = dose: 150.0 mg/kg/injection, schedule: Q04DX003 (sc), vehicle: saline with Tween-80

In the case of `COc1cc2cc(c1Cl)N(C)C(=O)C[C@H](OC(=O)[C@H](C)N(C)C(C)=O)[C@]1(C)O[C@H]1[C@H](C)[C@@H]1C[C@@](O)(NC(=O)O1)[C@H](OC)C=C/C=C(\C)C2`, the T/C (dose: 50.0 mg/kg/injection, schedule: Q01DX010 (sc), vehicle: Klucel (hydroxypropylcellulose) (HPC)) was 72 % of control, the T/C (dose: 100.0 mg/kg/injection, schedule: Q01DX010 (sc), vehicle: Klucel (hydroxypropylcellulose) (HPC)) was 3 % of control and the T/C (dose: 200.0 mg/kg/injection, schedule: Q01DX010 (sc), vehicle: Klucel (hydroxypropylcellulose) (HPC)) was 1 % of control. For the same compound, the T/C (dose: 12.5 micrograms/kg/injection, schedule: Q01DX010 (sc), vehicle: Klucel (hydroxypropylcellulose) (HPC)) was 224 % of control, the T/C (dose: 25.0 micrograms/kg/injection, schedule: Q01DX010 (sc), vehicle: Klucel (hydroxypropylcellulose) (HPC)) was 77 % of control and the T/C (dose: 50.0 micrograms/kg/injection, schedule: Q01DX010 (sc), vehicle: Klucel (hydroxypropylcellulose) (HPC)) was 73 % of control. For the same compound, the T/C (dose: 100.0 micrograms/kg/injection, schedule: Q01DX010 (sc), vehicle: Klucel (hydroxypropylcellulose) (HPC)) was 32 % of control and the T/C (dose: 200.0 micrograms/kg/injection, schedule: Q01DX010 (sc), vehicle: Klucel (hydroxypropylcellulose) (HPC)) was 2 % of control.

In the case of `[Na+]`, the T/C (dose: 150.0 mg/kg/injection, schedule: Q04DX003 (ip), vehicle: water) was 68 % of control, the T/C (dose: 600.0 mg/kg/injection, schedule: Q04DX003 (ip), vehicle: water) was 82 % of control and the T/C (dose: 1200.0 mg/kg/injection, schedule: Q04DX003 (ip), vehicle: water) was 79 % of control.

In the case of `Nc1ncn(C2OC(CO)C(O)C2O)c(=O)n1` (stereo unspecified), the T/C [1] was 47 % of control, the T/C [2] was 39 % of control and the T/C (dose: 100.0 mg/kg/injection, schedule: Q04DX003 (sc), vehicle: saline) was 34 % of control. For the same compound, the T/C (dose: 200.0 mg/kg/injection, schedule: Q04DX003 (sc), vehicle: saline) was 18 % of control and 28 % of control, the T/C (dose: 400.0 mg/kg/injection, schedule: Q04DX003 (sc), vehicle: saline) was 15 % of control and 32 % of control and the T/C (dose: 1600.0 mg/kg/injection, schedule: Q04DX003 (sc), vehicle: saline) was -72 % of control.

For `Nc1nnc[se]1`, the T/C (dose: 100.0 mg/kg/injection, schedule: Q04DX003 (sc), vehicle: saline with Tween-80) was 82 % of control, the T/C (dose: 200.0 mg/kg/injection, schedule: Q04DX003 (sc), vehicle: saline with Tween-80) was 40 % of control and the T/C (dose: 400.0 mg/kg/injection, schedule: Q04DX003 (sc), vehicle: saline with Tween-80) was 30 % of control.

`CC(=O)OC1C(O)C(C)OC(OC2C(OC(=O)C3CCC4C(C3)OC3(CC(OC(=O)/C=C/c5ccccc5)C(C)CO3)C43CO3)OC(C)C(O)C2OC(C)=O)C1O` (stereo unspecified) was tested, and the T/C (dose: 37.5 mg/kg/injection, schedule: Q04DX003 (sc), vehicle: distilled water + Tween-80) was 121 % of control and the T/C (dose: 75.0 mg/kg/injection, schedule: Q04DX003 (sc), vehicle: distilled water + Tween-80) was 63 % of control.

For `NC1=NCN(C2OC(CO)C(O)C2O)C(=O)N1` (stereo unspecified), the T/C [3] was 86 % of control, the T/C [4] was 180 % of control and the T/C (dose: 100.0 mg/kg/injection, schedule: Q01DX010 (sc), vehicle: saline) was 112 % of control. For the same compound, the T/C (dose: 166.66 mg/kg/injection, schedule: Q04DX003 (sc), vehicle: saline) was 158 % of control, the T/C [5] was 84 % of control and the T/C (dose: 333.32 mg/kg/injection, schedule: Q04DX003 (sc), vehicle: saline) was 55 % of control. For the same compound, the T/C (dose: 666.65 mg/kg/injection, schedule: Q04DX003 (sc), vehicle: saline) was 88 % of control.

For `CC(C)CCCCCCCCCCCCC(=O)NCC(=O)NC1C(O)C(O)C(Nc2ncnc3nc[nH]c23)OC1C(O)CO` (stereo unspecified), the T/C (dose: 0.4 mg/kg/injection, schedule: Q01DX010 (sc), vehicle: saline) was 98 % of control and the T/C (dose: 0.8 mg/kg/injection, schedule: Q01DX010 (sc), vehicle: saline) was 24 % of control.

For `CCOC(=O)N(C)N=NC`, the T/C (dose: 7.5 mg/kg/injection, schedule: Q04DX003 (ip), vehicle: saline) was 57 % of control, the T/C (dose: 15.0 mg/kg/injection, schedule: Q04DX003 (ip), vehicle: saline) was 51 % of control and the T/C (dose: 60.0 mg/kg/injection, schedule: Q04DX003 (ip), vehicle: saline) was 14 % of control and 24 % of control.

With `C[n+]1c(-c2cccc3ccccc23)c2cc(N)ccc2c2ccccc21` the T/C (dose: 1.5 mg/kg/injection, schedule: Q04DX003 (sc), vehicle: saline) was 164 % of control, the T/C (dose: 6.0 mg/kg/injection, schedule: Q04DX003 (sc), vehicle: saline) was 113 % of control and the T/C (dose: 24.0 mg/kg/injection, schedule: Q04DX003 (sc), vehicle: saline) was 112 % of control. The T/C (dose: 48.0 mg/kg/injection, schedule: Q04DX003 (sc), vehicle: saline) was 78 % of control.

`CCOC(=O)c1c[nH]c2oc(/C=N/N3CC(CN4CCOCC4)OC3=O)cc2c1=O` (stereo unspecified) was tested, and the T/C [4] was 81 % of control and the T/C [5] was 118 % of control.

In the case of `CC(=O)OCN(C)C=O`, the T/C (dose: 300.0 mg/kg/injection, schedule: Q01DX010 (sc), vehicle: water) was 65 % of control, the T/C (dose: 600.0 mg/kg/injection, schedule: Q01DX010 (sc), vehicle: water) was 52 % of control and the T/C (dose: 1200.0 mg/kg/injection, schedule: Q01DX010 (sc), vehicle: water) was 40 % of control. The T/C (dose: 2400.0 mg/kg/injection, schedule: Q01DX010 (sc), vehicle: water) was 45 % of control.

In the case of `CCCCCn1c(C)cc(/C=C\c2ccc3cc(C)ccc3[n+]2C)c1C`, the T/C (dose: 0.25 mg/kg/injection, schedule: Q01DX010 (sc), vehicle: Klucel (hydroxypropylcellulose) (HPC)) was 214 % of control, the T/C (dose: 1.0 mg/kg/injection, schedule: Q01DX010 (sc), vehicle: Klucel (hydroxypropylcellulose) (HPC)) was 212 % of control and the T/C (dose: 2.0 mg/kg/injection, schedule: Q01DX010 (sc), vehicle: Klucel (hydroxypropylcellulose) (HPC)) was 119 % of control.

`CC(=O)OCC1(C)NC(=O)c2ccccc2O1` (stereo unspecified) was tested, and the T/C [6] was 86 % of control and the T/C [7] was 91 % of control.

In the case of `CCCCCc1cc(O)c2c(c1)OC(C)(C)[C@@H]1CCC(C)=C[C@@H]21`, the T/C (dose: 150.0 mg/kg/injection, schedule: Q04DX003 (sc), vehicle: other) was 94 % of control, the T/C (dose: 300.0 mg/kg/injection, schedule: Q04DX003 (sc), vehicle: other) was 91 % of control and the T/C (dose: 600.0 mg/kg/injection, schedule: Q04DX003 (sc), vehicle: other) was 76 % of control. The T/C (dose: 1200.0 mg/kg/injection, schedule: Q04DX003 (sc), vehicle: other) was 90 % of control.

`Cc1ccc(S(=O)(=O)N/N=C/C(Br)=C(/Br)C(=O)O)cc1` was tested, and the T/C (dose: 1.25 mg/kg/injection, schedule: Q04DX003 (sc), vehicle: saline) was 122 % of control, the T/C [1] was 115 % of control and the T/C [2] was 82 % of control.

With `CCOC(=O)c1cn(C)c2c1C(O)=C(C(=O)OC)CC(=O)N2` the T/C [6] was 99 % of control, the T/C [8] was 55 % of control and the T/C [7] was 111 % of control. For the same compound, the T/C (dose: 2400.0 mg/kg/injection, schedule: Q04DX003 (sc), vehicle: saline with Tween-80) was 154 % of control.

`CN(C)P(=O)(Oc1ccccc1)N(C)C` was tested, and the T/C [9] was 99 % of control, the T/C [6] was 111 % of control and the T/C [8] was 72 % of control. The T/C [7] was 83 % of control.

With `FC(F)(F)c1nc2nc(Cl)c(Cl)nc2[nH]1` the T/C (dose: 75.0 mg/kg/injection, schedule: Q04DX003 (sc), vehicle: saline with Tween-80) was 116 % of control, the T/C [9] was 74 % of control and the T/C [6] was 68 % of control.

`Cc1cc(NCCCCCCCCNc2cc(C)nc3cc(N(C)C)ccc23)c2ccc(N(C)C)cc2n1` was tested, and the T/C (dose: 37.5 mg/kg/injection, schedule: Q01DX010 (sc), vehicle: distilled water + Tween-80 + alcohol) was 51 % of control, the T/C (dose: 75.0 mg/kg/injection, schedule: Q04DX003 (sc), vehicle: distilled water + Tween-80 + alcohol) was 64 % of control and the T/C (dose: 150.0 mg/kg/injection, schedule: Q04DX003 (sc), vehicle: distilled water + Tween-80 + alcohol) was 46 % of control. The T/C (dose: 300.0 mg/kg/injection, schedule: Q04DX003 (sc), vehicle: distilled water + Tween-80 + alcohol) was 13 % of control.

In the case of `O=c1cnn(C2OC(CO)C(O)C2O)c(=O)[nH]1` (stereo unspecified), the T/C [5] was 42 % of control, the T/C (dose: 400.0 mg/kg/injection, schedule: Q01DX010 (sc), vehicle: saline) was 46 % of control and the T/C (dose: 800.0 mg/kg/injection, schedule: Q01DX010 (sc), vehicle: saline) was 35 % of control.

For `COc1ccc(C(=O)/C(Br)=C/C(=O)O)cc1`, the T/C [3] was 194 % of control and the T/C [4] was 158 % of control.
